Test results taken from ChEMBL document CHEMBL5620342, “Recent advances of novel fourth generation EGFR inhibitors in overcoming C797S mutation of lung cancer therapy” (Eur J Med Chem, 2023).
One block for each compound: values may come before it.

Legend:
[1] = target: T1, Epidermal growth factor receptor (Homo sapiens, UniProt P00533, C797S/L858R/T790M); assay: (§1) Inhibition of […]/T790M/C797S triple mutant (unknown origin) phosphorylation expressed in mouse BaF3 cells by HTRF assay; type: cell-based
T1 sequence (P00533 25-1210 T790M/C797S/L858R limits assumed): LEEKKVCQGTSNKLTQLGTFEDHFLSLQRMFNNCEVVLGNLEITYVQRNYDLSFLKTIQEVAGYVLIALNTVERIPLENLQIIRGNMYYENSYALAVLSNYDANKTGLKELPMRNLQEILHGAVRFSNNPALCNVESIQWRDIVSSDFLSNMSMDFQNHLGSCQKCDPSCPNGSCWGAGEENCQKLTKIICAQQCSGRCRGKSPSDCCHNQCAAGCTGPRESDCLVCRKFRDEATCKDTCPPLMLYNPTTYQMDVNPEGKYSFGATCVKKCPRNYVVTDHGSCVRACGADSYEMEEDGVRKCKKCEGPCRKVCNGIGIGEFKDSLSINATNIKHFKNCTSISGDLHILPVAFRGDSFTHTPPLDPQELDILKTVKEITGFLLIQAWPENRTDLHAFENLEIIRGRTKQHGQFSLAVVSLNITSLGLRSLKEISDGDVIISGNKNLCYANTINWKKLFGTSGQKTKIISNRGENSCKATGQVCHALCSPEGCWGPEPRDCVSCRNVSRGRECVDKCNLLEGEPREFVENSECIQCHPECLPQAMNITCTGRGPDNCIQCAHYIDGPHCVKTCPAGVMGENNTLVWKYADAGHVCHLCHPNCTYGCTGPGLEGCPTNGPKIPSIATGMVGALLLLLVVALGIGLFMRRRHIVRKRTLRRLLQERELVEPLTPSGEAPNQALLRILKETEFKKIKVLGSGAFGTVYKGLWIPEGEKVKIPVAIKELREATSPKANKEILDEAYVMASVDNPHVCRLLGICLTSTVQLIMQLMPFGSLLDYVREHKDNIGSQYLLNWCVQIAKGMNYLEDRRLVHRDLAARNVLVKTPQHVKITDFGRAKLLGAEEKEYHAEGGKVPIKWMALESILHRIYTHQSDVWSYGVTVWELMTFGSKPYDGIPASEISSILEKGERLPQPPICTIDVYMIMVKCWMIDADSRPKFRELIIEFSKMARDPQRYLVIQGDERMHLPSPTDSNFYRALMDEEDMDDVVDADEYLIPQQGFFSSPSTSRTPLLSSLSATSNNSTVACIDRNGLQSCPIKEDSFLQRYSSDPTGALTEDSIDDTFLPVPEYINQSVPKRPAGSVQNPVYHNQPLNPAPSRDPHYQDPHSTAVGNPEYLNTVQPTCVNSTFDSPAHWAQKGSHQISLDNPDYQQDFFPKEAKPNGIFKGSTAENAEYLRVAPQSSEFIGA

[2] = cells; conditions: Mus musculus, Ba/F3 EGFR-T790M/C797S/L858R
[3] = test system: NIH3T3; assay: Antiproliferative activity against mouse NIH3T3 cells expressing EGFR Del19/T790M/C797S mutant assessed as reduction in cell proliferation incubated for 72 hrs by MTT assay; type: functional, cell-based; conditions: NIH3T3, 72 h
[4] = test system: A-431; assay: Antiproliferative activity against human A-431 cells […] assessed as reduction in cell growth; type: functional, cell-based
[5] = test system: A-431; assay: Cytotoxicity against human A-431 cells expressing wild type EGFR assessed as reduction in cell viability incubated for 96 hrs by CellTiter-Glo assay; type: functional, cell-based; conditions: A-431, 96 h
[6] = target: T1, Epidermal growth factor receptor; assay: Inhibition of EGFR L858R/T790M/C797S triple mutant (unknown origin) expressed in Bac-to-Bac baculovirus expression system measured after 2 hrs by ELISA method
[7] = test system: BaF3; assay: Cytotoxicity against mouse BaF3 cells harboring EGFR L858R/T790M/C797S mutant assessed as reduction in cell viability incubated for 96 hrs by CellTiter-Glo assay; type: functional, cell-based; conditions: BaF3, 96 h
[8] = test system: BaF3; assay: Inhibition of cell proliferation of mouse BaF3 cells expressing EGFR Del19/T790M/C797S mutant (unknown origin); type: functional, cell-based
[9] = target: Epidermal growth factor receptor (Homo sapiens, UniProt P00533, T790M/C797S/L858R); assay: as §1; type: cell-based; conditions: baf3
Sequence of Epidermal growth factor receptor (Homo sapiens, UniProt P00533, T790M/C797S/L858R) (P00533 25-1210 T790M/C797S/L858R limits assumed): as above

[10] = test system: BaF3; assay: Inhibition of EGFR phosphorylation in mouse BaF3 cells harboring EGFR L858R/T790M/C797S triple mutant at 10 uM by Western blotting analysis; type: cell-based
[11] = Inhibition of EGFR T790M/C797S double mutant (unknown origin); design: species or system Homo sapiens
[12] = target: Epidermal growth factor receptor (Homo sapiens, UniProt P00533); assay: Inhibition of wild type EGFR (unknown origin) by ELISA analysis
Sequence of Epidermal growth factor receptor (Homo sapiens, UniProt P00533) (P00533 whole entry): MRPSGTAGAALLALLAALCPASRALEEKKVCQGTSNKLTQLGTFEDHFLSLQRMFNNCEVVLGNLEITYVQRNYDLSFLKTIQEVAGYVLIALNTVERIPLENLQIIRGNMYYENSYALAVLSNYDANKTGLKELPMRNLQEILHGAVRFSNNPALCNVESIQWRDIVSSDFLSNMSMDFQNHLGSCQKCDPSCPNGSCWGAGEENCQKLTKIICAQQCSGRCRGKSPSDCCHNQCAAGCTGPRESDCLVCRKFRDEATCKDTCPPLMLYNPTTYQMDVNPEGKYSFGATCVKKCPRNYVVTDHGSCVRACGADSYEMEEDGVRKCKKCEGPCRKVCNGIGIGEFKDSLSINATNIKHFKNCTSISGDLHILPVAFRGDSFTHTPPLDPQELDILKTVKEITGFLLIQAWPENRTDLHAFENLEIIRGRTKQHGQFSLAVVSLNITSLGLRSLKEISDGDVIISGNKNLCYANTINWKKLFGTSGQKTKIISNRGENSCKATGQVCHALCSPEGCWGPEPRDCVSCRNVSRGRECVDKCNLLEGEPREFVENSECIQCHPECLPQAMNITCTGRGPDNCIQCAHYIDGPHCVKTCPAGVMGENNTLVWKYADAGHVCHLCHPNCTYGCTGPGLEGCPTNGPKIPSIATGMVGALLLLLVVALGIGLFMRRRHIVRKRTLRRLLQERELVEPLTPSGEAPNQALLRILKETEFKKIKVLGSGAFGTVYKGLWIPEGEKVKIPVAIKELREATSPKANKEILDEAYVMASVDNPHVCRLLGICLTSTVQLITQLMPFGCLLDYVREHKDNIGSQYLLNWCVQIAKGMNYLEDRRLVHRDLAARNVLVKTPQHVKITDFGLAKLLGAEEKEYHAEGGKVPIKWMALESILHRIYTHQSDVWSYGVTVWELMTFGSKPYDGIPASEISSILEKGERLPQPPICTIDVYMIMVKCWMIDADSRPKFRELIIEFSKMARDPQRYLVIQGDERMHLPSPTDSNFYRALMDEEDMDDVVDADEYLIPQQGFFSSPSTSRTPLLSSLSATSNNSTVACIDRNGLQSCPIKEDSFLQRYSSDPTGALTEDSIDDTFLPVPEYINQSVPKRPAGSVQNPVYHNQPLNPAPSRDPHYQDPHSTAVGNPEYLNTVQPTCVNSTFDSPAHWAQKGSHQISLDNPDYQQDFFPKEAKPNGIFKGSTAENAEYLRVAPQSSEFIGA

[13] = target: T1, Epidermal growth factor receptor; assay: Inhibition of EGFR L858R/T790M/C797S mutant (unknown origin) using TK-substrate preincubated with enzyme for 30 mins followed by substrate for 10 mins by HTRF assay
[14] = test system: BaF3; assay: Cytotoxicity against mouse BaF3 cells harboring wild type EGFR assessed as reduction in cell viability incubated for 72 hrs by CellTiter-Glo assay; type: functional, cell-based; conditions: BaF3, 72 h
[15] = test system: BaF3; assay: Cytotoxicity against mouse BaF3 cells harboring EGFR-Del19/T790M/C797S mutant assessed as cell growth inhibition measured after 72 hrs by CellTiter-Glo luminescent assay; type: functional, cell-based; conditions: BaF3, 72 h
[16] = test system: PC-9; assay: Antiproliferative activity against human PC-9 cells assessed as inhibition of cell growth incubated for 72 hrs by MTT assay; type: functional, cell-based; conditions: PC-9, 72 h
[17] = test system: PC-9; assay: Antiproliferative activity against human PC-9 cells expressing EGFR Del19 mutant assessed as inhibition of cell growth measured after 72 hrs by MTT assay; type: functional, cell-based; conditions: PC-9, 72 h
[18] = test system: BaF3; assay: Antiproliferative activity against mouse BaF3 cells harboring EGFR L858R/T790M/C797S triple mutant after 72 hrs by resazurin dye-based fluorescence assay; type: functional, cell-based; conditions: BaF3, 72 h
[19] = test system: BaF3; assay: Cytotoxicity against mouse BaF3 cells harboring EGFR-Del19/T790M/C797S mutant assessed as cell growth inhibition measured after 96 hrs by CellTiter-Glo luminescent assay; type: functional, cell-based; conditions: BaF3, 96 h
[20] = test system: BaF3; assay: Antiproliferative activity against mouse BaF3 cells harboring wild type EGFR assessed as reduction in cell growth; type: functional, cell-based
[21] = test system: PC-9; assay: Antitumor activity in OR-resistant human PC-9 cells xenografted in […] assessed as tumor growth inhibition at 30 mg/kg, po administered once daily for 14 days relative to control; type: functional; conditions: PC-9, 336 h, time 14 day, read-out: TGI
[22] = target: T1, Epidermal growth factor receptor; assay: Inhibition of EGFR L858R/T790M/C797S triple mutant (unknown origin)
[23] = test system: PC-9; assay: Antitumor activity in OR-resistant human PC-9 cells xenografted in […] assessed as tumor growth inhibition at 60 mg/kg, po administered once daily for 14 days relative to control; type: functional; conditions: PC-9, 336 h, time 14 day, read-out: TGI
[24] = Inhibition of EGFR-C797S/T790M/del19 mutant in mouse BaF3 cells assessed as reduction in EGFR phosphorylation incubated for 6 hrs by Western blotting analysis; type: cell-based; conditions: BaF3, 6 h
[25] = test system: BaF3; assay: Cytotoxicity against mouse BaF3 cells expressing EGFR L858R mutant assessed as reduction in cell viability; type: functional, cell-based
[26] = Oral bioavailability in CD-1 mouse at 3 mg/kg measured after 24 hrs by LC-MS/MS analysis; type: ADME, organism-based; conditions: in vivo

IC50 [1]: 10 nM
Compound: CN1CCN(c2ccc(Nc3ncc4cc(CNc5ccccc5)n(C5CCCC5)c4n3)cc2)CC1

IC50 [2]: 20 nM
Compound: COc1cc(N2CCN(CCCCCCCC(=O)N[C@@H](C(=O)N3C[C@@H](O)C[C@@H]3C(=O)N[C@H](C)c3ccc(-c4nc(C)cs4)cc3)C(C)(C)C)CC2)ccc1Nc1ncc(Cl)c(Nc2ccccc2P(C)(C)=O)n1

Compound: CC(C)n1c2cc(Nc3ccnc(-c4cnn(S(=O)(=O)C5CC5)c4)n3)ncc2c2c(OCC(F)(F)F)cc(N3CCN(C)CC3)cc21
IC50 [3]: 20 nM
IC50 [4]: 1200 nM
IC50 [1]: 0.25 nM
IC50 [5]: 1200 nM
IC50 [6]: 0.28 nM

IC50 [8]: 316 nM
Compound: CCC(=O)N[C@H]1CC[C@@H](N2C(=O)N(c3ccccc3Cl)Cc3cnc(Nc4ccc(N5CCN(C)CC5)c(C)c4)nc32)CC1
IC50 [7]: 290 nM

IC50 [9]: 266 nM
Compound: CNC(=O)c1cnc(Nc2ccnc(N3CCC(O)CC3)n2)cc1NC(C)C

Compound: Oc1ccccc1-c1nc(NCC2CCOC2)c2ccccc2n1 (configuration not stated)
inhibition [10]: 91%

IC50 [11]: 10.5 nM
IC50 [12]: 7.92 nM
IC50 [13]: 136 nM
Compound: Cc1cc(N2CCN(C(c3ccccc3)c3ccccc3)CC2)nc2ccc(Cl)cc12

Compound: O=C(Nc1nccs1)C(c1cc(F)ccc1O)N1Cc2ccccc2C1=O (configuration not stated)
IC50 [14]: > 10 µM
IC50 [7]: > 10000 nM

Compound: C=CC(=O)Nc1cc(Nc2nccc(-c3cn(C)c4ccccc34)n2)c(OC)cc1N(C)CCN(C)C [OSIMERTINIB]
IC50 [15]: 3380 nM
IC50 [16]: 4850 nM
IC50 [17]: 80 nM
IC50 [18]: 4140 nM

Compound: N#Cc1ccc(O)c(-c2nc(NCc3cccnc3)c3ccccc3n2)c1
inhibition [10]: 94.2%

IC50 [20]: 520 nM
Compound: COc1ccc(-c2c3c4cc(OCCCN(C)C)c(OCCCN(C)C)cc4oc(=O)c3n3ccc4cc(O)c(OC)cc4c23)cc1O
IC50 [19]: 127 nM

IC50 [16]: 180 nM
IC50 [17]: 230 nM
IC50 [22]: 3.1 nM
IC50 [18]: 120 nM
IC50 [24]: 2.4 nM
Compound: CN1CCN(c2ccc(Nc3ncc(Cl)c(Nc4ccccc4P(C)(C)=O)n3)c(Br)c2)CC1
inhibition in vivo at 30 mg/kg [21]: 83.5%
IC50 [15]: 90 nM
inhibition in vivo at 60 mg/kg [23]: 137%

Compound: COc1cc(N2CCN(C(C)=O)CC2)ccc1Nc1ncc(Cl)c(Nc2ccc(NCc3ccc(S(=O)(=O)F)cc3)cc2)n1
IC50 [25]: 110 nM
IC50 [8]: > 10000 nM

bioavailability [26]: 62.3%
Compound: COc1cc(N2CCC(N3CCN(CCC#Cc4cccc5c4CN(C4CCC(=O)NC4=O)C5=O)CC3)CC2)ccc1Nc1ncc(Cl)c(Nc2ccccc2P(C)(C)=O)n1 (configuration not stated)

IC50 [8]: 3.2 nM
Compound: CO[C@@H]1CCN(c2nccc(Nc3cc4c(C(C)C)ccc(N5C[C@H](CS(C)(=O)=O)[C@H]5C)c4cn3)n2)C[C@@H]1F [TIGOZERTINIB]
IC50 [7]: 4 nM

IC50 [11]: 10.8 nM
IC50 [12]: 7.59 nM
IC50 [13]: 130 nM
Compound: Cc1cc(N2Cc3ccccc3C2)nc2ccc(Cl)cc12

IC50 [11]: 11.2 nM
IC50 [12]: 7.9 nM
IC50 [13]: 124 nM
Compound: c1ccc(-c2cc(N3Cc4ccccc4C3)nc3ccccc23)cc1
